Tested on: Panel NCI-60 (60 carcinoma cell lines)
Test: Antiproliferative activity against human NCI60 cell line measured as mean graph midpoint
Type: functional

SMILES | Activity [µM]
Cl.c1c2c(cc3c1OCO3)-c1ncc3cc4c(cc3c1C2)OCO4 | 0.271
[N-]=[N+]=NCCCn1c2c(c3ccc([N+](=O)[O-])cc3c1=O)C(=O)c1cc3c(cc1-2)OCO3 | 0.098
COc1cc2c3c(n(Cc4ccccc4)c(=O)c2cc1OC)-c1cc2c(cc1C3=O)OCO2 | 41.6
Cn1c2c(c3ccccc3c1=O)C(=O)c1cc3c(cc1-2)OCO3 | 45
Cl.NCCCn1c2c(c3ccc([N+](=O)[O-])cc3c1=O)C(=O)c1ccccc1-2 | 0.146
COc1cc2c3c(n(C)c(=O)c2cc1OC)-c1cc2c(cc1/C3=C/CCCI)OCO2 | 8.49
COc1cc2c3c(n(CCCCO)c(=O)c2cc1OC)-c1cc2c(cc1C3=O)OCO2 | 3.2
Cl.NCCCn1c2c(c3ccccc3c1=O)C(=O)c1cc3c(cc1-2)OCO3 | 0.251
Cl.O=C1c2ccccc2-c2c1c1ccccc1c(=O)n2CCCNCCCn1ccnc1 | 1.01
COc1cc2c(cc1[N+](=O)[O-])C(=O)N(CCCBr)[C@@H]1c3cc4c(cc3C(=O)[C@H]21)OCO4 | 0.016
COc1cc2c3c(n(CCN)c(=O)c2cc1OC)-c1cc2c(cc1C3=O)OCO2.Cl | 0.338
O=C1c2ccccc2-c2c1c1ccccc1c(=O)n2CCCCCO | 14.4
Cl.NCCCCn1c2c(c3ccccc3c1=O)C(=O)c1ccccc1-2 | 0.156
Cl.NCCCn1c2c(c3ccccc3c1=O)C(=O)c1ccccc1-2 | 0.315
COc1cc2c3c(n(CCCNCCN)c(=O)c2cc1OC)-c1cc2c(cc1C3=O)OCO2.Cl.Cl | 0.347
CC[C@]1(O)C[C@@H]2CN(CCc3c([nH]c4ccccc34)[C@@](C(=O)OC)(c3cc4c(cc3OC)N(C)[C@H]3[C@@](O)(C(=O)OC)[C@H](OC(C)=O)[C@]5(CC)C=CCN6CC[C@]43[C@@H]65)C2)C1.O=S(=O)(O)O [VINBLASTINE SULFATE] | 0.025
CC[C@@]1(O)C(=O)OCc2c1cc1n(c2=O)Cc2cc3ccccc3nc2-1 [CAMPTOTHECIN] | 0.0405
COc1cc2c3c(n(C)c(=O)c2cc1OC)-c1cc2c(cc1C3=O)OCO2 | 20
COc1cc2c(cc1OC)[C@H]1C(=O)c3cc4c(cc3[C@H]1N(Cc1ccccc1)C2=O)OCO4 | 1.18
CC(=O)O[C@H]1C(=O)[C@@]2(C)[C@H]([C@H](OC(=O)c3ccccc3)[C@]3(O)C[C@H](OC(=O)[C@H](O)[C@@H](NC(=O)c4ccccc4)c4ccccc4)C(C)=C1C3(C)C)[C@]1(OC(C)=O)CO[C@@H]1C[C@@H]2O [PACLITAXEL] | 0.0253
O=C1c2cc3c(cc2-c2c1c1ccccc1c(=O)n2CCCNCCCO)OCO3 | 15.5
COc1cc2c(cc1OC)[C@H]1C(=O)c3cc4c(cc3[C@H]1N(CCCBr)C2=O)OCO4 | 0.69
CCCCn1c2c(c3cc(OC)c(OC)cc3c1=O)C(=O)c1cc3c(cc1-2)OCO3 | 41.6
COc1cc2c3c(n(CCCNCCNCCN)c(=O)c2cc1OC)-c1cc2c(cc1C3=O)OCO2.Cl | 2.4
COc1cc2c3c(n(CCCN)c(=O)c2cc1OC)-c1cc2c(cc1C3=O)OCO2.Cl | 0.16

— ChEMBL document CHEMBL1145321, “Evaluation of indenoisoquinoline topoisomerase I inhibitors using a hollow fiber assay” (2006)
